IC50 data for 15 compounds are collected here from ChEMBL document CHEMBL1932918, “AChE inhibitor: a regio- and stereo-selective 1,3-dipolar cycloaddition for the synthesis of novel substituted 5,6-dimethoxy spiro[5.3']-oxindole-spiro-[6.3″]-2,3-dihydro-1H-inden-1″-one-7-(substituted aryl)-tetrahydro-1H-pyrrolo[1,2-c][1,3]thiazole” (Bioorg Med Chem Lett, 2012).

The assay deals with Acetylcholinesterase (Electrophorus electricus, UniProt O42275). The assay is described as follows: Inhibition of electric eel AChE using […] measured every sec for 2 mins by Ellman's method.

The structures appear in SMILES notation. pIC50: −log10 of the molar value.

Sequence of Acetylcholinesterase (O42275 whole entry): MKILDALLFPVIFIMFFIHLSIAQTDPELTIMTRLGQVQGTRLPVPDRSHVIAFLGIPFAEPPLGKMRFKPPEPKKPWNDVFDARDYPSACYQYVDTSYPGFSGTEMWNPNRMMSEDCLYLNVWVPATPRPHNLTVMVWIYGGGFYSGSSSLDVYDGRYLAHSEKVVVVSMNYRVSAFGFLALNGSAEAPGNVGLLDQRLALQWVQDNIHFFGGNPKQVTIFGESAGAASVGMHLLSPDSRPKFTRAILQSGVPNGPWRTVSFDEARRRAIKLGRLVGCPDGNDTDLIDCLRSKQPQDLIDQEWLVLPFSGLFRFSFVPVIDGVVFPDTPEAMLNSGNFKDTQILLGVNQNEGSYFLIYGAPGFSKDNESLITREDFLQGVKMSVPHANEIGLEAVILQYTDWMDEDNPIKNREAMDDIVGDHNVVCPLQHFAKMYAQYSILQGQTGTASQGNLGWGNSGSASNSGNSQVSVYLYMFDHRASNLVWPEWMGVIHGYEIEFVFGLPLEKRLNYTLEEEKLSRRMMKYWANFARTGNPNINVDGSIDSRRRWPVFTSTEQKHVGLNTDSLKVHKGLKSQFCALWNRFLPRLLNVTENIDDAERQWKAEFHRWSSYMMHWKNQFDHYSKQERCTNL

In general, pIC50 refers to the IC50 on a negative log10 scale, so that one unit is a factor of ten. A higher pIC50 goes with a low IC50. With `COc1ccc(C2C3CSCN3C3(C(=O)Nc4ccc([N+](=O)[O-])cc43)C23Cc2cc(OC)c(OC)cc2C3=O)cc1OC` (stereo not given), the pIC50 was 5.68. Next, `COc1cc2c(cc1OC)C(=O)C1(C2)C(c2ccccc2)C2CSCN2C12C(=O)Nc1ccc(Cl)cc12` (stereo not given): 5.59; `COc1cc2c(cc1OC)C(=O)C1(C2)C(c2ccncc2)C2CSCN2C12C(=O)Nc1ccc(Cl)cc12` (stereo not given): 6.47; `COc1cc2c(cc1OC)C(=O)C1(C2)C(c2ccccc2)C2CSCN2C12C(=O)Nc1ccccc12` (stereo not given): 5.24. Then `COc1cc2c(cc1OC)C(=O)C1(C2)C(c2ccccc2Cl)C2CSCN2C12C(=O)Nc1ccccc12` (stereo not given), with 5.08. As to `COc1cc2c(cc1OC)C(=O)C1(C2)C(c2ccccc2)C2CSCN2C12C(=O)Nc1ccc([N+](=O)[O-])cc12` (stereo not given), the pIC50 is 5.50. Then `COc1cc2c(cc1OC)C(=O)C1(C2)C(c2ccc(F)cc2)C2CSCN2C12C(=O)Nc1ccc(Cl)cc12` (stereo not given), with 5.81; and `COc1cc2c(cc1OC)C(=O)C1(C2)C(c2ccncc2)C2CSCN2C12C(=O)Nc1ccccc12` (stereo not given), with 6.32. Then `COc1cc2c(cc1OC)C(=O)C1(C2)C(c2ccncc2)C2CSCN2C12C(=O)Nc1ccc([N+](=O)[O-])cc12` (stereo not given), with 6.96; and `COc1ccc(C2C3CSCN3C3(C(=O)Nc4ccccc43)C23Cc2cc(OC)c(OC)cc2C3=O)cc1OC` (stereo not given), with 5.21; and `COc1cc2c(cc1OC)C(=O)C1(C2)C(c2ccccc2Cl)C2CSCN2C12C(=O)Nc1ccc(Cl)cc12` (stereo not given), with 5.48. Then `COc1ccc(C2C3CSCN3C3(C(=O)Nc4ccc(Cl)cc43)C23Cc2cc(OC)c(OC)cc2C3=O)cc1OC` (stereo not given), with 5.65; and `COc1cc2c(cc1OC)C(=O)C1(C2)C(c2ccc(F)cc2)C2CSCN2C12C(=O)Nc1ccc([N+](=O)[O-])cc12` (stereo not given), with 5.94; and `COc1cc2c(cc1OC)C(=O)C1(C2)C(c2ccc(F)cc2)C2CSCN2C12C(=O)Nc1ccccc12` (stereo not given), with 5.95. On to `COc1cc2c(cc1OC)C(=O)C1(C2)C(c2ccccc2Cl)C2CSCN2C12C(=O)Nc1ccc([N+](=O)[O-])cc12` (stereo not given), for which the pIC50 is 5.67.
